Experimental data taken from article PMC3441526, “KCN1, a Novel Synthetic Sulfonamide Anticancer Agent: In Vitro and In Vivo Anti-Pancreatic Cancer Activities and Preclinical Pharmacology” (PLoS ONE, 2012).
Read-outs that look alike come from different tables or passages of the source.

Legend:
[1] = tested on: Mia Paca-2 xenograft tumors; test: Subcutaneous xenograft tumor model; format: in vivo, nude mice (nu/nu); settings: for decrease of tumor growth: 5 days/wk for 6 weeks
Experimental: (§1) The animal procedures were performed under approval by the Institutional Animal Use and Care Committee of Texas Tech University Health Sciences Center (IACUC # 10031, PHS Assurance # A 3056-01, USDA Registration # 74-R-0050, REF # 039436). Female athymic pathogen-free nude mice (nu/nu, 4–6 weeks) were purchased from Charles River Laboratories International Inc. (Wilmington, MA). To establish Panc-1 and Mia Paca-2 human pancreatic cancer xenograft tumors, cultured Panc-1 (5×10^6) and Mia Paca-2 (1×10^7) cells were harvested from monolayer cultures, washed twice with serum-free medium, re-suspended and injected subcutaneously (total volume 0.2 mL) into the left inguinal area of the mice. All animals were monitored for activity, physical condition, body weight, and tumor growth. Tumor size was determined every other day by caliper measurement of two perpendicular diameters of the implant. Tumor volume (in mm^3) was calculated by the formula, ½ (a × b ^2) where “a” is the long diameter and “b” is the short diameter, [47].
(§2) The animals bearing human cancer xenografts were randomly divided into various treatment groups and a control group (7–10 mice/group). The untreated control group received the vehicle only. For the Panc-1 and Mia Paca-2 xenograft models, KCN1 was dissolved in a 1∶1 solution of Cremophor EL (Sigma, St. Louis, MO): ethanol (200 Proof) by heating to 80–90°C in a water bath and vortexing, then diluted with an equal volume of phosphate-buffered saline, and was administered by intraperitoneal injection at doses of 30 and 60 mg/kg/d, 5d/wk for several weeks. Treatment was initiated once tumor volume reached ∼100 mm^3. The dosage regimen was decided based upon IC50 values obtained from in-vitro studies and adjustments for body surface and weight of the treated animal.

Panc-1 xenograft tumors = test: Subcutaneous xenograft tumor model; format: in vivo, nude mice (nu/nu); settings: for tumor growth inhibition: 5 days/week, Day 21
Experimental: as §1, §2

S9 metabolism = format: in vitro ADME, CD2F1 mice
Experimental: The in vitro metabolism of KCN1 was determined using hepatic microsomal S9 fractions from CD2F1 mice (In Vitro Technologies, Boston, MA). The reaction mixture consisted of 20 µL of 1000 µM KCN1 (in DMSO) and 1280 µL of cold 100 mM Tris buffer (pH 7.4). The reactions were initiated by adding 200 µL of the appropriate S9 fraction, and were maintained at 37°C. […] Metabolic reactions were initiated by adding phase I (NADPH-regenerating systems) or phase II (UDPGA and PAPS) reagents to the reaction mixtures, respectively. At designated time points (0, 15, 30, 45, and 60 min), duplicate 100 µL portions of the incubation mixture were removed and subjected to HPLC analysis by the same procedure described for plasma samples above. The stability of the drug was determined by analysis of intact KCN1, in comparison with negative control (without S9 fractions).

[2] = Pharmacokinetic study in mice; format: in vivo, nude mice (nu/nu); settings: for dose recovered as parental KCN1 from urine: first 24 hr
Experimental: Female CD-1 and nude mice were administered 35 mg/kg body weight of KCN1 as either a single intravenous injection via a tail vein or via an intraperitoneal injection. At selected time points after dosing, groups of three mice/time point were subjected to a retro-orbital bleed. The blood was collected into heparinized tubes, and plasma was separated by centrifugation. Tissues (brain, skeletal muscle, kidneys, liver, spleen, and heart) were collected by necropsy. Urine and feces were collected on ice for 24 h from mice housed in metabolic cages (n = 3/study). The collection containers and cages were washed twice with 0.9% saline solution, and each urine collection and each wash was analyzed separately, then values were added together for each mouse to determine the total KCN1 present in urine during the collection period. Pharmacokinetic values were derived using Phoenix WinNonlin Version 6.0 (Mountain View, CA).
An HPLC protocol was developed to detect KCN1 in different matrices (plasma, urine or tissue homogenates) using an Agilent 1120 instrument. KCN1 was separated on a Zorbax SB-C18 (5 µm, 150 × 4.6 mm) analytical column with a Zorbax Reliance Cartridge Guard Column (SB-C18), and the eluate was monitored by UV at 254 nm. The mobile phase was composed of “A” (methanol +0.1% Et3N)-“B” (ddH2O+0.1% Et3N) (80∶20, v/v). Prior to application, the mobile phase was filtered and degassed using a Millipore glass filter system with a nylon membrane (0.2 µm). The peaks for KCN1 were used to establish standard curves and for quantitative analysis of samples. Quantification of the compound was achieved by determination of the peak area at the retention time of approximately 4.4 minutes.
Plasma (100 µL) was mixed with 200 µL of methanol, vortexed, and centrifuged to remove precipitated proteins. The supernatant was evaporated to dryness under a stream of air. The residue was dissolved in 100 µL of the mobile phase, and 10 µL was injected onto the HPLC system for analysis. Weighed tissues were homogenized in two to five volumes of PBS (based on the weight of the tissue samples), and portions of the homogenates were processed in the same manner as the plasma samples.

[3] = nude mice, 35 mg/kg, either route

COc1ccc(S(=O)(=O)N(Cc2ccc3c(c2)C=CC(C)(C)O3)c2ccccc2)cc1OC [KCN1, 3,4-dimethoxy-N-[(2,2-dimethyl-2H-chromen-6-yl)methyl]-N-phenylbenzenesulfonamide]
decrease of tumor growth ([1]; 30 mg/kg i.p.): about 43% | decrease of tumor growth ([1]; 60 mg/kg i.p.): ~57% | body weight versus controls ([1]; 30 or 60 mg/kg i.p.): no significant differences in body weights | tumor growth inhibition (Panc-1 xenograft tumors; 30 mg/kg i.p.): approximately 46% | tumor growth inhibition (Panc-1 xenograft tumors; 60 mg/kg i.p.): 61% | body weight versus controls (Panc-1 xenograft tumors; 30 or 60 mg/kg i.p.): no significant differences in body weights | decrease in amount of KCN1 (S9 metabolism; mouse S9, phase I (oxidation) enzymes, NADPH-regenerating system): more than 60% | half-life with phase II enzymes (S9 metabolism; mouse S9, phase II (conjugation) enzymes, UDPGA and PAPS): relatively long half-life | Tmax ([2]; female, nude (nu/nu), mouse, plasma, ip, nude mice, I.P. 35 mg/kg, read-out: time of maximum plasma level): 120 min | concentration at 6 h ([2]; female, nude (nu/nu), mouse, plasma, iv, nude mice, I.V. 35 mg/kg, 6 h after dosing): < 300 ng/mL | concentration at 5 min ([2]; female, nude (nu/nu), mouse, plasma, iv, nude mice, bolus I.V. 35 mg/kg, 5 minutes): 5190 ng/mL | half-life ([2]; female, nude (nu/nu), mouse, Brain, Nu/nu, IP 35 mg/kg): 57 min | Tmax ([2]; female, nude (nu/nu), mouse, Brain, Nu/nu, IP 35 mg/kg, read-out: Tmax): 60 min | half-life ([2]; female, nude (nu/nu), mouse, Brain, Nu/nu, IV 35 mg/kg): 203 min | Tmax ([2]; female, nude (nu/nu), mouse, Brain, Nu/nu, IV 35 mg/kg, read-out: Tmax): 4.8 min | half-life ([2]; female, nude (nu/nu), mouse, Heart, Nu/nu, IP 35 mg/kg): 73.2 min | Tmax ([2]; female, nude (nu/nu), mouse, Heart, Nu/nu, IP 35 mg/kg, read-out: Tmax): 4.8 min | half-life ([2]; female, nude (nu/nu), mouse, Heart, Nu/nu, IV 35 mg/kg): 21.6 min | Tmax ([2]; female, nude (nu/nu), mouse, Heart, Nu/nu, IV 35 mg/kg, read-out: Tmax): 240 min | half-life ([2]; female, nude (nu/nu), mouse, Kidneys, Nu/nu, IP 35 mg/kg): 1350 min | Tmax ([2]; female, nude (nu/nu), mouse, Kidneys, Nu/nu, IP 35 mg/kg, read-out: Tmax): 15 min | half-life ([2]; female, nude (nu/nu), mouse, Kidneys, Nu/nu, IV 35 mg/kg): 108 min | Tmax ([2]; female, nude (nu/nu), mouse, Kidneys, Nu/nu, IV 35 mg/kg, read-out: Tmax): 4.8 min | half-life ([2]; female, nude (nu/nu), mouse, Liver, Nu/nu, IP 35 mg/kg): 151 min | Tmax ([2]; female, nude (nu/nu), mouse, Liver, Nu/nu, IP 35 mg/kg, read-out: Tmax): 30 min | half-life ([2]; female, nude (nu/nu), mouse, Liver, Nu/nu, IV 35 mg/kg): 203 min | Tmax ([2]; female, nude (nu/nu), mouse, Liver, Nu/nu, IV 35 mg/kg, read-out: Tmax): 120 min | half-life ([2]; female, nude (nu/nu), mouse, Lungs, Nu/nu, IP 35 mg/kg): 62.4 min | Tmax ([2]; female, nude (nu/nu), mouse, Lungs, Nu/nu, IP 35 mg/kg, read-out: Tmax): 60 min | half-life ([2]; female, nude (nu/nu), mouse, Lungs, Nu/nu, IV 35 mg/kg): 120 min | Tmax ([2]; female, nude (nu/nu), mouse, Lungs, Nu/nu, IV 35 mg/kg, read-out: Tmax): 15 min | half-life ([2]; female, nude (nu/nu), mouse, Muscle, Nu/nu, IP 35 mg/kg): 178 min | Tmax ([2]; female, nude (nu/nu), mouse, Muscle, Nu/nu, IP 35 mg/kg, read-out: Tmax): 15 min | half-life ([2]; female, nude (nu/nu), mouse, Muscle, Nu/nu, IV 35 mg/kg): 137 min | Tmax ([2]; female, nude (nu/nu), mouse, Muscle, Nu/nu, IV 35 mg/kg, read-out: Tmax): 4.8 min | half-life ([2]; female, nude (nu/nu), mouse, Plasma, Nu/nu, IP 35 mg/kg): 159 min | half-life ([2]; female, nude (nu/nu), mouse, Plasma, Nu/nu, IV 35 mg/kg): 36 min | half-life ([2]; female, nude (nu/nu), mouse, Spleen, Nu/nu, IP 35 mg/kg): 48.6 min | Tmax ([2]; female, nude (nu/nu), mouse, Spleen, Nu/nu, IP 35 mg/kg, read-out: Tmax): 1440 min | half-life ([2]; female, nude (nu/nu), mouse, Spleen, Nu/nu, IV 35 mg/kg): 84 min | Tmax ([2]; female, nude (nu/nu), mouse, Spleen, Nu/nu, IV 35 mg/kg, read-out: Tmax): 120 min | dose recovered as parental KCN1 from urine ([2]; nude mice, 35 mg/kg I.P.): less than 0.5% | dose recovered as parental KCN1 from urine ([2]; nude mice, 35 mg/kg intravenously): less than 1% | detection in brain [2, 3]: could not be detected after 6 h | time detectable in heart, lungs, liver, spleen, kidneys and skeletal muscle [2, 3]: at least 24 h | time plasma concentration still detectable ([2]; nude mice, I.P. 35 mg/kg): ≥ 24 h | time plasma concentration still detectable ([2]; nude mice, I.V. 35 mg/kg): at least 6 h
